In brackets after ≈: the same amount, converted by molar mass. Like-named read-outs stand apart in the source and are kept apart here.
Columns and labels:
Format in all cases: cell-based
[1] = system: Staphylococcus aureus Smith strain; experiment: MIC for Staphylococcus aureus Smith strain; conditions: read-out: MIC Straphyrococcus aureus Smith
[2] = system: Staphylococcus aureus 209P strain; experiment: MIC for Staphylococcus aureus 209P strain; conditions: Staphylococcus aureus, read-out: MIC Straphyrococcus aureus 209P
[3] = system: Staphylococcus aureus MRSA No. 17 (methicillin-resistant Staphylococcus aureus: MRSA); experiment: MIC for Staphylococcus aureus MRSA No. 17; conditions: read-out: MIC Straphyrococcus aureus MRSA No. 17 (MRSA)
[4] = system: Enterococcus faecalis 5038 strain; experiment: MIC for Enterococcus faecalis 5038 strain; conditions: read-out: MIC Enterococcus faecalis 5038
[5] = system: Enterococcus faecalis NCTC12201 strain (vancomycin-resistant Enterococcus: VRE); experiment: MIC for Enterococcus faecalis NCTC12201 strain (VRE); conditions: read-out: MIC Enterococcus faecalis NCTC 12201 (VRE)
[6] = system: Clostridium difficile JCM1296 strain; experiment: microbe, parasite or virus in culture; conditions: for MIC: Clostridioides difficile, JCM1296, read-out: MIC Clostridium difficile JCM1296
[7] = system: Clostridium perfringens PB6K strain; experiment: microbe, parasite or virus in culture; conditions: CD medium, 37° C. overnight, 10% CO2-containing anaerobic conditions; for MIC: Clostridium perfringens, PB6KSTRAIN, read-out: MIC Clostridium perfringens PB6K, PB6K strain
[8] = system: Escherichia coli K-12 strain; experiment: MIC for Escherichia coli K-12 strain; conditions: Escherichia coli, K12STRAIN, read-out: MIC Escherichia coli K12
[9] = system: Escherichia coli BE1121 strain; experiment: MIC for Escherichia coli BE1121 strain; conditions: Escherichia coli, BE1121STRAIN, read-out: MIC Escherichia coli BE1121
[10] = Smith strain, regular bouillon medium, 37° C. overnight, turbidity
[11] = 209P strain, regular bouillon medium, 37° C. overnight, turbidity
[12] = MRSA No. 17, regular bouillon medium, 37° C. overnight, turbidity
[13] = 5038 strain, Heart Infusion Broth medium, 37° C. overnight, turbidity
[14] = NCTC12201 strain (VRE), Heart Infusion Broth medium, 37° C. overnight, turbidity
[15] = K-12 strain, regular bouillon medium, 37° C. overnight, turbidity
[16] = BE1121 strain, regular bouillon medium, 37° C. overnight, turbidity

Compound	MIC [1, 10] [µg/mL]	MIC [2, 11] [µg/mL]	MIC [3, 12] [µg/mL]	MIC [4, 13] [µg/mL]	MIC [5, 14] [µg/mL]	MIC [6] [µg/mL]	MIC [7] [µg/mL]	MIC [8, 15] [µg/mL]	MIC [9, 16] [µg/mL]	MIC ([2]; 209P) [µg/mL]	MIC [8] [µg/mL]	MIC [9] [µg/mL]	MIC [1] [µg/mL]	MIC ([3]; MRSA) [µg/mL]	MIC ([4]; 5038STRAIN) [µg/mL]	MIC [5] [µg/mL]	MIC ([5]; NCTC12201|VRE) [µg/mL]	MIC Clostridium difficile JCM1296 [6] [µg/mL]	MIC Clostridium perfringens PB6K ([7]; PB6K strain) [µg/mL]
CCCCCCCCCC(=O)NCC(O)=C1C(=O)N(C(=O)OC(C)(C)C)c2ccccc21 [A011, N-Boc-3-decanoylaminoacetyl-2-oxyindole]	128 (≈ 288 µM)	256 (≈ 576 µM)	256 (≈ 576 µM)	256 (≈ 576 µM)	256 (≈ 576 µM)	2 (≈ 4.5 µM)	2 (≈ 4.5 µM)	128 (≈ 288 µM)	128 (≈ 288 µM)	–	–	–	–	–	–	–	–	–	–
CC(=O)N1C(=O)C(=C(O)CCCCCCCCCBr)c2ccccc21 [A024, N-acetyl-3-(10-bromodecanoyl)-2-oxyindole]	4 (≈ 9.8 µM)	–	16 (≈ 39.2 µM)	0.5 (≈ 1.22 µM)	1 (≈ 2.45 µM)	0.5 (≈ 1.22 µM)	0.5 (≈ 1.22 µM)	–	–	16 (≈ 39.2 µM)	128 (≈ 313 µM)	16 (≈ 39.2 µM)	–	–	–	–	–	–	–
CCCCCOCC(=O)c1c(O)c2ccccc2oc1=O [B021, 4-hydroxy-3-(pentyloxyacetyl)coumarin]	–	–	–	–	–	8 (≈ 27.6 µM)	32 (≈ 110 µM)	–	–	32 (≈ 110 µM)	128 (≈ 441 µM)	16 (≈ 55.1 µM)	128 (≈ 441 µM)	123 (≈ 424 µM)	32 (≈ 110 µM)	64 (≈ 220 µM)	–	–	–
CCCCCCCCCCOCC(O)=C1C(=O)N(C(=O)OC(C)(C)C)c2ccc(F)cc21 [A055, N-Boc-3-decyloxyacetyl-5-fluoro-2-oxyindole]	128 (≈ 285 µM)	128 (≈ 285 µM)	128 (≈ 285 µM)	128 (≈ 285 µM)	128 (≈ 285 µM)	0.25 (≈ 0.556 µM)	2 (≈ 4.45 µM)	256 (≈ 569 µM)	256 (≈ 569 µM)	–	–	–	–	–	–	–	–	–	–
CCCCCCCCCC(O)=C1C(=O)N(C(=O)Nc2ccccc2)c2ccc(F)cc21 [A044, N-(phenylaminocarbonyl)-3-decanoyl-5-fluoro-2-oxyindole]	0.25 (≈ 0.589 µM)	256 (≈ 603 µM)	256 (≈ 603 µM)	1 (≈ 2.36 µM)	0.5 (≈ 1.18 µM)	< 0.125	< 0.125	256 (≈ 603 µM)	256 (≈ 603 µM)	–	–	–	–	–	–	–	–	–	–
CCCCC1CCC(C(=O)c2c(O)c3cc(F)ccc3oc2=O)CC1 (stereo not drawn) [B009, 3-(4-butylcyclohexylcarbonyl)-6-fluoro-4-hydroxycoumarin]	–	1 (≈ 2.89 µM)	–	–	–	0.25 (≈ 0.722 µM)	1 (≈ 2.89 µM)	256 (≈ 739 µM)	4 (≈ 11.5 µM)	–	–	–	0.5 (≈ 1.44 µM)	1 (≈ 2.89 µM)	0.5 (≈ 1.44 µM)	0.5 (≈ 1.44 µM)	–	–	–
CCCCCCCCCCOCC(O)=C1C(=O)N(C(=O)Nc2ccc(OC)cc2)c2ccccc21 [A045, N-(4-methoxyphenylaminocarbonyl)-3-decyloxyacetyl-2-oxyindole]	128 (≈ 266 µM)	256 (≈ 533 µM)	256 (≈ 533 µM)	4 (≈ 8.32 µM)	64 (≈ 133 µM)	0.5 (≈ 1.04 µM)	8 (≈ 16.6 µM)	128 (≈ 266 µM)	128 (≈ 266 µM)	–	–	–	–	–	–	–	–	–	–
CCCCC1CCC(C(O)=C2C(=O)N(C(=O)Nc3ccc(Br)cc3)c3ccccc32)CC1 (stereo not drawn) [A040, N-(4-bromophenylaminocarbonyl)-3-(4-butylcyclohexylcarbonyl)-2-oxyindole]	2 (≈ 4.02 µM)	128 (≈ 257 µM)	128 (≈ 257 µM)	1 (≈ 2.01 µM)	1 (≈ 2.01 µM)	8 (≈ 16.1 µM)	4 (≈ 8.04 µM)	256 (≈ 515 µM)	256 (≈ 515 µM)	–	–	–	–	–	–	–	–	–	–
CCCCCCCCCCOC(C)C(O)=C1C(=O)N(C(C)=O)c2ccccc21 (stereo not drawn) [A018, N-acetyl-3-(2-decyloxypropionyl)-2-oxyindole]	0.5 (≈ 1.29 µM)	–	8 (≈ 20.6 µM)	0.5 (≈ 1.29 µM)	0.5 (≈ 1.29 µM)	256 (≈ 661 µM)	256 (≈ 661 µM)	–	–	64 (≈ 165 µM)	256 (≈ 661 µM)	< 0.125	–	–	–	–	–	–	–
CCCCCCCCCC(=O)c1c(O)c2ccc(OC)cc2oc1=O [B001, 3-decanoyl-4-hydroxy-7-methoxycoumarin]	128 (≈ 369 µM)	256 (≈ 739 µM)	256 (≈ 739 µM)	64 (≈ 185 µM)	64 (≈ 185 µM)	64 (≈ 185 µM)	64 (≈ 185 µM)	256 (≈ 739 µM)	256 (≈ 739 µM)	–	–	–	–	–	–	–	–	–	–
CCCCCCCCCCSCC(=O)c1c(O)c2cc(F)ccc2oc1=O [B027]	–	2 (≈ 5.07 µM)	–	–	–	< 0.125	0.25 (≈ 0.634 µM)	256 (≈ 649 µM)	4 (≈ 10.1 µM)	–	–	–	0.25 (≈ 0.634 µM)	1 (≈ 2.53 µM)	0.25 (≈ 0.634 µM)	–	< 0.125	–	–
CCCCCCCCCCOCC(=O)c1c(O)c2cc(F)ccc2oc1=O [B019, 3-decyloxyacetyl-6-fluoro-4-hydroxycoumarin]	256 (≈ 676 µM)	256 (≈ 676 µM)	256 (≈ 676 µM)	256 (≈ 676 µM)	256 (≈ 676 µM)	< 0.125	< 0.125	256 (≈ 676 µM)	256 (≈ 676 µM)	–	–	–	–	–	–	–	–	–	–
O=C(NCC(=O)c1c(O)c2ccccc2oc1=O)c1ccccc1 [B013, 3-benzoylaminoacetyl-4-hydroxycoumarin]	256 (≈ 792 µM)	256 (≈ 792 µM)	256 (≈ 792 µM)	256 (≈ 792 µM)	256 (≈ 792 µM)	128 (≈ 396 µM)	128 (≈ 396 µM)	256 (≈ 792 µM)	256 (≈ 792 µM)	–	–	–	–	–	–	–	–	–	–
CCCCCCCCCCOCC(O)=C1C(=O)N(C(=O)OC(C)(C)C)c2cc(Cl)ccc21 [A012, N-Boc-3-decyloxyacetyl-6-chloro-2-oxyindole]	256 (≈ 549 µM)	256 (≈ 549 µM)	256 (≈ 549 µM)	256 (≈ 549 µM)	256 (≈ 549 µM)	–	–	256 (≈ 549 µM)	256 (≈ 549 µM)	–	–	–	–	–	–	–	–	32 (≈ 68.7 µM)	32 (≈ 68.7 µM)
CCCCCCCCCC(=O)N1C(=O)/C(=C(\O)COC)c2cc(F)ccc21 [A050, N-decanoyl-3-methoxyacetyl-5-fluoro-2-oxyindole]	0.5 (≈ 1.32 µM)	256 (≈ 678 µM)	256 (≈ 678 µM)	0.5 (≈ 1.32 µM)	0.5 (≈ 1.32 µM)	0.25 (≈ 0.662 µM)	0.5 (≈ 1.32 µM)	256 (≈ 678 µM)	128 (≈ 339 µM)	–	–	–	–	–	–	–	–	–	–
CCCCCCCCCC(O)=C1C(=O)Nc2ccc(F)cc21 [A004, 3-decanoyl-5-fluoro-2-oxyindole]	16 (≈ 52.4 µM)	–	32 (≈ 105 µM)	16 (≈ 52.4 µM)	15 (≈ 49.1 µM)	2 (≈ 6.55 µM)	8 (≈ 26.2 µM)	–	–	16 (≈ 52.4 µM)	128 (≈ 419 µM)	128 (≈ 419 µM)	–	–	–	–	–	–	–
CCCCCCCCCCSCC(=O)c1c(O)c2ccccc2oc1=O [B023]	–	1 (≈ 2.66 µM)	–	–	–	< 0.125	< 0.125	256 (≈ 680 µM)	2 (≈ 5.31 µM)	–	–	–	0.25 (≈ 0.664 µM)	1 (≈ 2.66 µM)	0.25 (≈ 0.664 µM)	–	0.25 (≈ 0.664 µM)	–	–
CCCCC1CCC(C(O)=C2C(=O)N(C(=O)OC(C)(C)C)c3ccc(F)cc32)CC1 (stereo not drawn) [A027, N-Boc-3-(4-butylcyclohexylcarbonyl)-5-fluoro-2-oxyindole]	16 (≈ 38.3 µM)	128 (≈ 307 µM)	128 (≈ 307 µM)	8 (≈ 19.2 µM)	8 (≈ 19.2 µM)	1 (≈ 2.4 µM)	2 (≈ 4.79 µM)	128 (≈ 307 µM)	128 (≈ 307 µM)	–	–	–	–	–	–	–	–	–	–
CCCCCCCCCC(=O)N1C(=O)C(=C(O)c2ccc(Cl)cc2)c2ccccc21 [A060, N-decanoyl-3-(4-chlorobenzoyl)-2-oxyindole]	–	64 (≈ 150 µM)	–	–	–	0.5 (≈ 1.17 µM)	1 (≈ 2.35 µM)	128 (≈ 301 µM)	128 (≈ 301 µM)	–	–	–	1 (≈ 2.35 µM)	16 (≈ 37.6 µM)	1 (≈ 2.35 µM)	1 (≈ 2.35 µM)	–	–	–
CCCCCCCCCC(O)=C1C(=O)N(C(=O)Nc2ccc(Br)cc2)c2ccccc21 [A039, N-(4-bromophenylaminocarbonyl)-3-decanoyl-2-oxyindole]	256 (≈ 527 µM)	256 (≈ 527 µM)	256 (≈ 527 µM)	256 (≈ 527 µM)	256 (≈ 527 µM)	64 (≈ 132 µM)	64 (≈ 132 µM)	256 (≈ 527 µM)	256 (≈ 527 µM)	–	–	–	–	–	–	–	–	–	–
